These results are taken from patent EP0292365A2, “4-Amino-5,8-quinazolindione derivatives, process for their preparation and pharmaceutical compositions containing them” (CENTRE NATIONAL DE LA RECHERCHE SCIENTIFIQUE, priority 1987, dated 1988).

Each structure is given as a SMILES string.

Series [1] can be described thus: Determination of toxicity (DLo), single intraperitoneal dose. The series is classed as in vivo. The conditions noted are these: voie intrapéritonéale, dose unique, souris Swiss, suivies pendant un mois. The source says: Ils sont tous administrés, par voie intrapéritonéale (ip), à des souris Swiss de 22 ± 2 g, à doses uniques exprimées en mg/kg de poids corporel. Les animaux sont suivis pendant un mois. La mortalité et les signes de toxicité sont relevés. On détermine ainsi la DLoqui sera la dose maximale utilisée pour la détermination de l'activité antitumorale.

The test system of a further series is Mélanome B16. The series is classed as in vivo, souris BDF1. The text has this:
Afin de tester l'activité antitumorale des composés décrits plus haut, on a utilisé les leucémies murines P388 et L1210, ainsi que le mélanome murin B16. La leucémie P388 est considère comme très sensible et permet une première sélection. D'autre part, une substance ayant une grande activité sur la leucémie L1210 a une grande chance d'être active en clinique humaine (J.M. Venditti; Relevance of transplantable animal tumor systems to the Selection of new agents for clinical trial in pharmacological basis of cancer chemotherapy. The University of Texas ed. Williams and Wilkins, publ. 1975, Baltimore USA).
Cette étude a été réalisée sur 1, 2 ou 3 tumeurs murines expérimentales selon le schéma suivant :
Les produits en solution dans l'eau ou en suspension dans du Klucel sont administrés par voie intrapéritonéale 24 heures après la greffe des cellules tumorales (10 animaux par série), soit en injection unique (J1), soit pendant 9 jours consécutifs (Ji-9). Les morts sont relevés chaque jour à la même heure. La comparaison du temps médian de survie des souris témoins (C) et des souris traitées (T) permet d'apprécier l'activité antitumorale du produit. On adopte comme critère d'activité minimale la valeur de T/C supérieure ou égale à 125 % conformément aux critères établis par GERAN et par l'O.M.S. (Réf. GERAN R.I., GREENBERG N.H., MACDONALD M.M., SCHUMACHER A.M. and ABBOTT B.J. Protocols for screening chemical agents and natural products against animal tumors and other biological systems. Cancer Chemother. Rep. Part 3, 3, 1-103 (1972)).
Lorsque le composé est actif sur plusieurs tumeurs, son administration par d'autres voies que la voie intrapéritonéale (i.p.) est envisagée : orale (p.o) et intraveineuse (i.v). Les résultats des essais effectués à l'aide du composé 63 sont rassemblés dans le tableau IV ci-après.
Dans les tableaux IV et IV Bis, P représentent la variation de poids entre J1 et J5 des animaux traités; lorsque P est supérieure à environ 4 g, cela signifie que la dose à laquelle le composé a été testé est toxique.

The subject of another series is cellules de lignée MCF-7. Description: Effect on in vitro cell growth, MCF-7 line (Feulgen staining, automated scanning microscopy). The series is classed as cell-based, humaine. The conditions noted are these: for nombre de cellules observées par champ de microscope: MCF-7. The method, then:
Les cellules tumorales en croissance exponentielle sont ensemencées (10.000 cellules/ml) dans des boîtes à Petri contenant au fond de la boîte un couvre-objet (18 x 18 mm) et 3 ml de MEM (MEM = milieu essentiel minimum) + 5 % FCS (FCS = serum de veau fetal) (v/v). Après 24 heures d'incubation, quand les cellules sont bien attachées au fond de la boîte, le milieu est remplacé par MEM expérimental contenant 5 % FCS (v/v) et enrichi, par exemple de : • a) 3 ml du milieu (MEM + 5 % FCS) = témoins • b) 3 ml du milieu contenant une dose élevée du composé à tester : 10 µg/ml : (M) • c) milieu contenant une faible dose du composé à tester : 0.01 µg/ml (f) respectivement aux jours 1, 2, 3 et 4 après addition du milieu expérimental dans les boîtes de Petri. Trois couvre-objets sont fixés pour chaque condition expérimentale : éthanol 95° (75 v), formol neutre à 40 % (20 v), acide acétique (5 v), pendant 10 minutes. Les cellules témoins cultivées dans le milieu expérimental sans le produit à tester sont fixées au même moment. A la fin de la fixation, les couvre-objets sont retournés et montés sur des lames histologiques à l'aide de produit commercialisé sous la marque DPX par la Société British Drug House et conservés à l'abri de la lumière et à 4° en attendant d'être colorés.
Les lames avec les couvre-objets sont colorées par une réaction de Feulgen modifiée. Toutes les lames d'une condition expérimentale sont conditionnées par le réactif de Feulgen en même temps, pendant une heure, après hydrolyse dans un milieu HCI 6N pendant une heure à 20° C. Les préparations cellulaires sont ensuite conservées à l'abri de la lumière et à 4°C en attendant l'analyse.
Grâce à un système d'analyse microscopique à balayage automatique, on détermine l'effet de la drogue sur la croissance cellulaire, au cours du temps, sur deux lignées cellulaires tumorales d'origine humaine : la lignée MCF-7 d'origine mammaire et la lignée HBL (mélanome malin).
On a représenté dans le tableau C les résultats relatifs à l'action du composé 63 sur la croissance des cellules de lignée MCF-7 et dans le tableau C BIS, les résultats relatifs à l'action du composé 63 sur la croissance des cellules de lignée HBL. Ces résultats montrent le nombre de cellules survivant au traitement après 1, 2, 3 et 4 jours d'incubation et à trois doses différentes (10 µg/ml, 1 µg/ml et 0,1 µg/ml).
Chaque chiffre correspond au nombre de cellules observées par champ de microscope.

Setting [2] is: B16, greffe ip(susp. au 1/10), ip J1-9, dose optimale 0,2 mg/kg/inj.

The term T/C denotes the ratio of treated to control. Consider `CN(C)CCCNc1ncnc2c1C(=O)C(N1CC1)=C(N1CC1)C2=O` [composé 63], for which the DLo in series [1] is roughly 3 mg/kg. Besides, the “survivants 60 jours” value in the series on Mélanome B16 (setting [2]) was found to be 2. Further, the “Δ P J1-J5” value with Mélanome B16 (setting [2]) was 0 g. Besides, the T/C in the series with Mélanome B16 (B16, greffe ip(susp. au 1/10), ip J1-9, dose optimale 0,2 mg/kg/inj., survivants inclus) was determined as 192%. In addition, the “Doses actives (T/C ≥ 125 %)” value in the series with Mélanome B16 (B16, greffe ip(susp. au 1/10), traitement ip J1-9) was 0,05-0,8 mg/kg/inj. The “activité sur le mélanome B16” value in the series on Mélanome B16 (summary) is “très efficace”. Moreover, the “nombre de cellules observées par champ de microscope” value in the series with cellules de lignée MCF-7 (0.1µg/ml (f), 1j) came to 174± 38 ns; in the series with cellules de lignée MCF-7 (0.1µg/ml (f), 2j), 92± 21; in the series with cellules de lignée MCF-7 (0.1µg/ml (f), 3j) it was 38± 6; in the series with cellules de lignée MCF-7 (0.1µg/ml (f), 4j), 30± 4; with cellules de lignée MCF-7 (1µg/ml (M), 1j), 133± 7 ns; in the series with cellules de lignée MCF-7 (1µg/ml (M), 2j) it was 85± 8. The “nombre de cellules observées par champ de microscope” value is recorded as 58± 7 in the series on cellules de lignée MCF-7 (1µg/ml (M), 3j); 63± 8 in the series on cellules de lignée MCF-7 (1µg/ml (M), 4j); 128± 11 ns with cellules de lignée MCF-7 (10µg/ml (F), 1j); 93± 4 in the series on cellules de lignée MCF-7 (10µg/ml (F), 2j); 87± 20 with cellules de lignée MCF-7 (10µg/ml (F), 3j); 88± 18 in the series on cellules de lignée MCF-7 (10µg/ml (F), 4j). The “croissance des cellules MCF-7” value in the series with cellules de lignée MCF-7 (dose-indépendante, summary of tableau C) is “ralentit fortement la croissance”.
